Literature values, collected in patent US6440942B1, “14-membered macrolides derived from leucomycins” (Enanta Pharmaceuticals, Inc., priority 2000, dated 2002).
Like-named read-outs stand apart in the source and are kept apart here.

How the values were obtained:
[1] = for in vitro potency relative to the parent compound: main metabolites of rokitamycin, parent compound = rokitamycin; for antimicrobial activity: josamycin metabolites isolated from urine and plasma of adults given oral josamycin
[2] = tested on: Gram-positive bacteria
[3] = tested on: Mycoplasma spp.
[4] = monkeys; compared with other 4″-O-butyryl derivatives
[5] = tested on: Gram-negative bacteria
[6] = dogs; compared with other 4″-O-butyryl derivatives

4″-debutyryl leucomycin A5 [leucomycin V]
in vitro potency relative to the parent compound [1]: one-tenth

5-hydroxyjosamycin
antimicrobial activity [1]: poor

CCC(=O)O[C@H]1[C@H](C)O[C@@H](O[C@H]2[C@H](N(C)C)[C@@H](O)[C@H](O[C@H]3[C@@H](CC=O)C[C@@H](C)[C@@H](O)/C=C/C=C/C[C@@H](C)OC(=O)C[C@@H](O)[C@@H]3OC)O[C@@H]2C)C[C@@]1(C)O [Leucomycin A7]
in vitro potency relative to the parent compound [1]: one-half

COC1C(O)CC(=O)OC(C)CC=CC=CC(=O)C(C)CC(CC=O)C1OC1OC(C)C(OC2CC(C)(O)C(OC(=O)CC(C)C)C(C)O2)C(N(C)C)C1O (stereo not drawn) [Niddamycin]
antibacterial activity in vitro [2]: good | antibacterial activity in vitro [3]: good

COC1C(OC(C)=O)CC(=O)OC(C)CC=CC=CC(O)C(C)CC(CC=O)C1OC1OC(C)C(OC2CC(C)(O)C(O)C(C)O2)C(N(C)C)C1O (stereo not drawn) [desisovaleryl josamycin]
antimicrobial activity [1]: inactive

CCCC(=O)O[C@H]1[C@H](C)O[C@@H](O[C@H]2[C@H](N(C)C)[C@@H](O)[C@H](O[C@H]3[C@@H](CC=O)C[C@@H](C)[C@@H](O)/C=C/C=C/C[C@@H](C)OC(=O)C[C@@H](O)[C@@H]3OC)O[C@@H]2C)C[C@@]1(C)OC(=O)CC [rokitamycin, 3″-O-propionyl leucomycin A5]
serum levels [4]: highest | activity among 4″-O-butyryl derivatives ([1]; compared with other 3″-O-acyl leucomycin A5 derivatives): most active | in vitro activity against Gram-negative bacteria relative to leucomycin A5, josamycin and midecamycin [5]: twice as high | serum levels [6]: highest

demycarosyl josamycin
antimicrobial activity [1]: inactive

β-hydroxyisovaleryl josamycin
antimicrobial activity [1]: poor
